Legend:
Bax in HepG2 cells = assay: Western blot, Bax; type: cell-based, human; conditions: different concentrations, 48 h, dose-dependent; in words
Description: (§1) HepG2 cells (3 × 10^5 cells/well) were seeded into a six-well plate overnight for adherence, and then treated with a14 (0, 30, 40, 50, 60, and 70 µM) for 48 h. After the cells were collected by centrifugation, they were lysed with the radio immunoprecipitation assay (RIPA) buffer (high) containing 50 mM Tris (pH = 7.4), 150 mM NaCl, 1% TritonX-100, 1% sodium deoxycholate, 0.1% sodium dodecyl sulfate (SDS), 2 mM sodium pyrophosphate, 25 mM β-glycerophosphate, 1 mM ethylenediaminetetraacetic acid (EDTA), 1 mM Na3VO4, and 0.5 ug/ml leupeptin (Beijing Solarbio Science & Technology Co., Ltd.).The extract was then centrifuged at 12,000 rpm for 30 min and the total protein concentration was quantified using the BCA kit (Beijing Solarbio Science & Technology Co., Ltd.). The protein extracts were mixed with the SDS-PAGE protein loading buffer (Beijing Solarbio Science & Technology Co., Ltd.) and then boiled in 100°C water bath for 10 min. The gel was gelatinized using an SDS Gel Kit (Beijing Solarbio Science & Technology Co., Ltd.) and protein extracts were separated by protein SDS-polyacrylamide gel electrophoresis and transferred to Immobilon-NC Membrane (Beijing Solarbio Science & Technology Co., Ltd.). […]

WI-38 = assay: MTT cell viability assay, normal cell line WI-38; type: cell-based, human; conditions: Homo sapiens, WI-38, 48 h, normal cells, mean ± SE
Description: (§2) HeLa, A549, HepG2, HL-60, and WI-38 cell lines were incubated in DMEM solution containing 10% FBS for 48 h. The incubated tumor cells were seeded into 96-well plates (5 × 10^3 cells/well) to make them attach for 12 h. Afterwards, the cells were processed with the various concentrations of the synthetic compounds and 5-FU for 48 h. After removing the cell culture supernatant, 10 µl MTT (5 mg/ml) solution was dripped into the cells to generate a formazan product, which were dissolved by dimethyl sulfoxide (DMSO) 4 h later. Multifunction microplate reader (Bio-Rad Laboratories, Shanghai, China) was adopted to measure the absorbance at the wave length of 490 nm. The IC50 (the lowest drug concentration causing 50% of the tumor cells inhibition) was then calculated using GraphPad Prism Software (version 5.02) and used to indicate the cytotoxic effect of the target compounds on the selected tumor cells.

A549 = assay: MTT cell viability assay, A549; type: cell-based, human; conditions: Homo sapiens, A549, 48 h, mean ± SE
Description: as §2

Bcl-2 in HepG2 cells = assay: Western blot, Bcl-2; type: cell-based, human; conditions: different concentrations, 48 h, dose-dependent; in words
Description: as §1

HepG2 cells [1] = assay: Inhibition curve of a14 on HepG2 cells (MTT, 24, 48, 72 h); type: cell-based, human; conditions: in words
Description: HepG2 cells (5 × 10^3 cells/well) were seeded into the 96-well plates and kept to attach overnight. […] After the incubation time, 10 µl MTT was added to each well, and the culture was continued in a sterile incubator at 37°C for 4 h under the environment of 5% CO2. Then, the supernatant medium was discarded, and the solid was dissolved in 200 µl DMSO. Then, a multifunction microplate reader (Bio-Rad Laboratories, Shanghai, China) was applied to record the absorbance at 490 nm. Cell growth inhibition rates at different concentrations were calculated and plotted using Origin Pro8 software. Each set of data represented the average value of three independent experiments.

HepG2 cells [2] = assay: DAPI staining, morphology of apoptotic cells; type: cell-based, human; conditions: various concentrations, 48 h; in words
Description: Firstly, HepG2 cells (3 × 10^5 cells/well) were seeded into six-well plates and kept to attach overnight. Then, the cells were incubated with a14 at different concentrations (0, 30, 50, and 70 µM) for 48 h, washed by ice-cold PBS solution and fixed with 4% paraformaldehyde for 10 min at room temperature. The cells was processed by DAPI (10 µg/ml) for 15 min in the dark, and the residual DAPI was rinsed two more times by ice-cold PBS. Then, the cells were transferred on a glass slide, fixed with a coverslip and placed under a fluorescence microscope (Motic China Group Co., Ltd., Shenzhen, China) to be observed and photographed at an excitation wavelength of 480/30× nm and the emission wavelength of 515 nm. Condensation of chromatin and fragmentation of nuclei could be applied to determine the apoptotic cells.

HL-60 = assay: MTT cell viability assay, HL-60; type: cell-based, human; conditions: Homo sapiens, HL-60, 48 h, mean ± SE
Description: as §2

Caspase 3 in HepG2 cells = assay: Western blot, Caspase 3; type: cell-based, human; conditions: 48 h, compared to the control group; in words
Description: as §1

ROS level in HepG2 cells = assay: ROS level by DCFH-DA probe, flow cytometry; type: cell-based, human; conditions: a14 50 µM, 8 h (0 h: 4351.6)
Description: HepG2 cells were seeded into six-well plates (3 × 10^5 cells/well) overnight to make the cells grow adherently and then incubated with a14 (50 µM) for 0, 3, 6, 8, 9, and 12 h. After that, the cells were added to 1 ml DCFH-DA (10 µM) and incubated for 30 min in the dark. After the cells were washed twice by the pre-cooled PBS, the cells were trypsinized and collected by centrifugation. The cells of the blank group were implemented the same experimental procedures, except for the process with a14. Besides, 5 mM N-acetyl-L-cysteine (NAC) was applied as anti-oxidative substance to prevent the oxidation of the cells, which could entirely block the production of ROS induced by a14. The generation levels of ROS were evaluated in fluorescence intensity (FL-1, 530 nm) by Beckman Coulter flow cytometer (Beckman Coulter, Inc. California). The data collected was analyzed using the CytExpert 2.0 software embedded in Beckman flow cytometry, and the histogram was plotted by Origin Pro8.

PARP in HepG2 cells = assay: Western blot, PARP and cleaved PARP; type: cell-based, human; conditions: 48 h, compared to the control group; in words
Description: as §1

HepG2 = assay: MTT cell viability assay, HepG2; type: cell-based, human; conditions: Homo sapiens, HepG2, 48 h, mean ± SE
Description: as §2

[3] = tested on: adherent tumor cell lines (HepG2, A549 and Hela); assay: MTT assay, summary over adherent tumor cell lines; type: cell-based; conditions: Homo sapiens; span of IC50 over compounds a11-a14 and adherent tumor cell lines; read-out: IC50 range over cell lines
Description: as §2

## COc1cc(/C=C/C(=O)c2ccc(O)c(C(N)=O)c2)cc(OC)c1OC [a14]
Bax in HepG2 cells
  expression of pro-apoptotic proteins (Bax): up-regulated
WI-38
  IC50: 121.3 ± 0.87 µM
A549
  IC50: 36.7 ± 1.08 µM
Bcl-2 in HepG2 cells
  expression of anti-apoptotic proteins (Bcl-2): down-regulated
HepG2 cells [1]; 24, 48, 72 h, different concentrations
  inhibitory activities on HepG2 cells: dose- and time-dependent manner
HepG2 cells [1]; action time 48 or 72 h
  growth inhibition effect on HepG2 cells: significantly improved
HepG2 cells [1]; action time less than 24 h
  cytotoxic effect on HepG2 cells: relatively weak
HepG2 cells [2]
  morphological changes of the nucleus (DAPI): a large number of nuclear condensation and nuclear fragmentation
HL-60
  IC50: 121 ± 3.58 µM
Caspase 3 in HepG2 cells
  expression level of Caspases 3: decrease
ROS level in HepG2 cells
  intracellular fluorescence intensity (DCFH-DA): 236197.3
PARP in HepG2 cells
  expression level of PARP: decrease
  level of cleaved PARP proteins: increase
HepG2
  IC50: 38.3 ± 0.59 µM
[3]
  IC50: 23.3 to 54.4 µM

From PMC6874057, “Synthesis of Chalcone Derivatives: Inducing Apoptosis of HepG2 Cells via Regulating Reactive Oxygen Species and Mitochondrial Pathway” (Frontiers in Pharmacology, 2019)
